According to publication PMC8274517, “Diaryl azo derivatives as anti-diabetic and antimicrobial agents: synthesis, in vitro, kinetic and docking studies” (Journal of Enzyme Inhibition and Medicinal Chemistry, 2021):
Converted amounts (≈) assume the structure as drawn.

Experiments:
S. aureus (DS) [1] = experiment: Antibiofilm assay (crystal violet); type: cell-based; conditions: 0.5 mg/mL
Experimental: (§1) The antibiofilm activity of the synthesised azo derivatives was assessed by microtitre plate-based crystal violet method[44] against respective bacterial strains i.e. gram-positive (S. aureus, S. aureus (DR)) and gram-negative (P. aeruginosa, P. aeruginosa (DR)). In brief, 10 µL bacterial suspension, 100 µL trypticase soy broth and 10 µL (10 mg/mL) of test compounds were added in the wells in duplicates and incubated at 37 °C overnight. Ampicillin and moxifloxacin were used as positive controls. After the aspiration of planktonic cells, the biofilm was fixed with 99% methanol. The wells were then washed with 0.1 M sterile PBS (pH = 6.9) thrice and air-dried. Then, 200 µL of crystal violet solution (2%) was added to all wells. After 15 min, the excess of the crystal violet dye was removed and the wells were washed again with PBS. Then, the cell-bound crystal violet was dissolved in 33% acetic acid. The biofilm growth was quantified in terms of OD575 nm using an ELISA plate reader and biofilm hydrolysis was calculated by % inhibition formula.

S. aureus (DR) [2] = experiment: Antibiofilm assay (crystal violet); type: cell-based; conditions: 0.5 mg/mL
Experimental: as §1

P. aeruginosa (DR) [3] = experiment: Antibiofilm assay (crystal violet); type: cell-based; conditions: Pseudomonas aeruginosa; 0.5 mg/mL; read-out: biofilm inhibition (anti-biofilm potency)
Experimental: as §1

S. aureus (DS) [4] = experiment: Antibacterial activity, minimum inhibitory concentration; type: cell-based; set-up: key: R: resistant; S: sensitive
Experimental: (§2) The prepared azo derivatives were screened for their antibacterial activity against six bacterial strains obtained from hospital isolates i.e. gram positive (S. aureus, S. aureus (DR)) and gram-negative (E. coli, P. aeruginosa, P. aeruginosa (DR), P. vulgaris). All the strains were confirmed by biochemical identification and drug susceptibility methods. The antibacterial evaluation was done by agar disc diffusion method[39]^,[40] and MIC was determined. In summary, a 48-h old inoculum having ∼0.48 OD600, of the above-mentioned bacterial strains was spread on the solidified trypticase soy agar media and Whatman no. 1 filter paper discs (5 mm in diameter) soaked with the title compounds (10 µL/disc of 10 mg/mL) were placed on the plates. Ampicillin and moxifloxacin were used as positive controls and DMSO as negative control respectively.

S. aureus (DR) [5] = experiment: as above; type: cell-based; set-up: key: R: resistant; S: sensitive
Experimental: as §2

P. aeruginosa (DR) [6] = experiment: as above; type: cell-based; set-up: key: R: resistant; S: sensitive
Experimental: as §2

P. vulgaris = experiment: as above; type: cell-based; set-up: key: R: resistant; S: sensitive
Experimental: as §2

E. coli = experiment: as above; type: cell-based; set-up: key: R: resistant; S: sensitive
Experimental: as §2

P. aeruginosa (DS) = experiment: as above; type: cell-based; set-up: key: R: resistant; S: sensitive
Experimental: as §2

α-glucosidase = experiment: In vitro α-glucosidase inhibition assay (pNPG substrate); type: biochemical, Saccharomyces Cerevisiae
Experimental: The α-glucosidase inhibition assay was performed as described previously. In summary, the stock solution of the enzyme from Saccharomyces Cerevisiae (0.2 U/mL) was prepared in 0.05 M sodium phosphate buffer pH 6.8. […] After incubation, 10 µL of the substrate, p-nitrophenyl α-D-glucopyranoside (pNPG, 5 mM solution in 0.05 M phosphate buffer) was added to the aboveprepared mixture and incubated again under the same experimental conditions. The reaction was stopped with the addition of 0.1 M Na2CO3 and OD405 was taken by a 96-well ELISA reader. The experiment was performed in triplicate.

Compound: Oc1ccc(N=Nc2cccnc2Cl)c2ccccc12 [TR-8, 4-((2-chloropyridin-3-yl)diazenyl)naphthalen-1-ol]
- melting point: 170 to 175 °C
- biofilm inhibition (S. aureus (DS) [1]): greater than 70%
- biofilm hydrolysis efficiency (S. aureus (DR) [2]): drastically decreased
- inhibition at 500 µg/mL (P. aeruginosa (DR) [3]): 80%
- Minimum inhibitory concentration: sensitive/resistant (S. aureus (DS) [4]; 125 µg/200 µL): S
- Minimum inhibitory concentration: sensitive/resistant (S. aureus (DS) [4]; 250 µg/200 µL): S
- Minimum inhibitory concentration: sensitive/resistant (S. aureus (DR) [5]; 125 µg/200 µL): R
- Minimum inhibitory concentration: sensitive/resistant (S. aureus (DR) [5]; 250 µg/200 µL): R
- Minimum inhibitory concentration: sensitive/resistant (P. aeruginosa (DR) [6]; 125 µg/200 µL): R
- Minimum inhibitory concentration: sensitive/resistant (P. aeruginosa (DR) [6]; 250 µg/200 µL): R
- Minimum inhibitory concentration: sensitive/resistant (P. vulgaris; 125 µg/200 µL): R
- Minimum inhibitory concentration: sensitive/resistant (P. vulgaris; 250 µg/200 µL): R
- Minimum inhibitory concentration: sensitive/resistant (E. coli; 125 µg/200 µL): R
- Minimum inhibitory concentration: sensitive/resistant (E. coli; 250 µg/200 µL): R
- Minimum inhibitory concentration: sensitive/resistant (P. aeruginosa (DS); 125 µg/200 µL): R
- Minimum inhibitory concentration: sensitive/resistant (P. aeruginosa (DS); 250 µg/200 µL): S
- % Inhibition (α-glucosidase; 15.62 µg/mL): 29%
- % Inhibition (α-glucosidase; 31.2 µg/mL): 45%
- % Inhibition (α-glucosidase; 125 µg/mL): 75%
- % Inhibition (α-glucosidase; 250 µg/mL): 98%
- IC50 (α-glucosidase; means ± SEM of triplicate): 36.7 ± 3.1 µg/mL (≈ 129 µM)
